From patent US10173991B2, “Sulfone amide linked benzothiazole inhibitors of endothelial lipase” (BRISTOL-MYERS SQUIBB COMPANY, priority 2014, dated 2019)

Target: Endothelial lipase (EL) (Homo sapiens (Human), UniProt Q9Y5X9)
Assay: Endothelial lipase (EL) enzymatic assay with fluorescent substrate A10070 in DMPG vesicles
Assay type: biochemical
In short: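 Vesicles prepared: A10070 dried with DMPG, resuspended in HEPES pH 8.0/NaCl/EDTA, sonicated on ice. Enzyme incubated with compound 30 min at 37° C. Reaction started with 1:10 diluted vesicles. Fluorescence (490/530 nm) followed 60 min; slope from 300–900 secs gives rate.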

Sequence of Endothelial lipase (EL) (Q9Y5X9 21-500): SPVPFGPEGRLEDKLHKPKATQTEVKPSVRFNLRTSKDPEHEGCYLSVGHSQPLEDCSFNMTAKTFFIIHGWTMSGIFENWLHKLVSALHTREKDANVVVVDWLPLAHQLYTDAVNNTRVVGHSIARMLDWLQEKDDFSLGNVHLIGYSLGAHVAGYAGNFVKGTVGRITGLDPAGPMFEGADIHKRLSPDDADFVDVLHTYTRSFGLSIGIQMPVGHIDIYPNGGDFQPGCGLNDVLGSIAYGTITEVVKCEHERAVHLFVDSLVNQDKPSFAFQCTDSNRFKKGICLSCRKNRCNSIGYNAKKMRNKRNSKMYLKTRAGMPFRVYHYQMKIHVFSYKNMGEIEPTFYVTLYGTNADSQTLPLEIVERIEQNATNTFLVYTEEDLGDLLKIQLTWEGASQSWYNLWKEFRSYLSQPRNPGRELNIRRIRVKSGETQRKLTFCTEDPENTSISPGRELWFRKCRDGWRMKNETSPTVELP

| Compound | IC50 |
| --- | --- |
| O=C(CNC(=O)C(c1nc2cc(F)c(-c3cncnc3)cc2s1)S(=O)(=O)c1cccc(-c2cncnc2)c1)NC1CC1 (stereo not shown) [Example 446, N-[(cyclopropyl-carbamoyl)methyl]-2-[5-fluoro-6-(pyrimidin-5-yl)-1,3-benzothiazol-2-yl]-2-[3-(pyrimidin-5-yl)benzenesulfonyl] acetamide] | 78 nM |
| COCCS(=O)(=O)C(C(=O)NCC(=O)NC1CC1)c1nc2cc(-c3ccc(F)cc3)ccc2s1 (stereo not shown) [Example 135, N-[(cyclopropyl-carbamoyl)methyl]-2-[5-(4-fluorophenyl)-1,3-benzothiazol-2-yl]-2-(2-methoxyethane-sulfonyl) acetamide] | 49 nM |
| CC(C)S(=O)(=O)C(C(=O)NCC(=O)NC1CC1)c1nc2cc(F)c(-c3ccc(C(=O)N4CCC4)cc3)cc2s1 (stereo not shown) [Example 244, 2-{6-[4-(azetidine-1-carbonyl)phenyl]-5-fluoro-1,3-benzothiazol-2-yl}-N-[(cyclopropyl-carbamoyl)methyl]-2-(propane-2-sulfonyl)acetamide] | 7 nM |
| Cc1ccn(-c2cccc(-c3ccc4nc(C(C(=O)NCC(=O)NC5CC5)S(C)(=O)=O)sc4c3)n2)n1 (stereo not shown) [Example 412, N-[(cyclopropyl-carbamoyl)methyl]-2-methanesulfonyl-2-{6-[6-(3-methyl-1H-pyrazol-1-yl)pyridin-2-yl]-1,3-benzothiazol-2-yl}acetamide] | 14 nM |
| COCCS(=O)(=O)C(C(=O)NCC(=O)NC1CC1)c1nc2cc(-c3ccc4[nH]c(=O)ccc4c3)c(F)cc2s1 (stereo not shown) [Example 347, N-[(cyclopropyl-carbamoyl)methyl]-2-[6-fluoro-5-(2-oxo-1,2-dihydroquinolin-6-yl)-1,3-benzothiazol-2-yl]-2-(2-methoxyethane-sulfonyl)acetamide] | 18 nM |
| CC(C)S(=O)(=O)C(C(=O)NCC(=O)NC1CC1)c1nc2cc(F)c(-c3ccc(NC(=O)OCc4ccccc4)cc3)cc2s1 (stereo not shown) [Example 38, benzyl N-{4-[2-({[(cyclopropyl-carbamoyl)methyl]carbamoyl} (propane-2-sulfonyl)methyl)-5-fluoro-1,3-benzothiazol-6-yl]phenyl} carbamate] | 2 nM |
| O=C(CNC(=O)C(c1nc2ccc(-c3ccc(F)nc3)cc2s1)S(=O)(=O)Cc1ccc(F)cc1)NC1CC1 (stereo not shown) [Example 515, N-[(cyclopropyl-carbamoyl)methyl]-2-[(4-fluorophenyl)methanesulfonyl]-2-[6-(6-fluoropyridin-3-yl)-1,3-benzothiazol-2-yl]acetamide] | 48 nM |
| COCCS(=O)(=O)C(C(=O)NCC(=O)NC1CC1)c1nc2cc(C)c(-c3ccc4c(=O)n(C)ccc4c3)cc2s1 (stereo not shown) [Example 189, N-[(cyclopropyl-carbamoyl)methyl]-2-(2-methoxyethane-sulfonyl)-2-[5-methyl-6-(2-methyl-1-oxo-1,2-dihydro-isoquinolin-6-yl)-1,3-benzothiazol-2-yl]acetamide] | 4 nM |
| COCCS(=O)(=O)C(C(=O)NCC(=O)NC1CC1)c1nc2ccc(-c3ccc(C(=O)N4CC[C@@H](OC)C4)cc3)cc2s1 (stereo partly drawn) [Example 407, N-[(cyclopropyl-carbamoyl)methyl]-2-(2-methoxyethane-sulfonyl)-2-(6-{4-[(3R)-3-methoxy-pyrrolidine-1-carbonyl]phenyl}-1,3-benzothiazol-2-yl)acetamide] | 24 nM |
| CS(=O)(=O)C(C(=O)NCC(=O)NC1CC1)c1nc2cc(F)c(-c3ccc(-n4cccn4)cc3)cc2s1 (stereo not shown) [Example 375, N-[(cyclopropyl-carbamoyl)methyl]-2-{5-fluoro-6-[4-(1H-pyrazol-1-yl)phenyl]-1,3-benzothiazol-2-yl}-2-methanesulfonyl-acetamide] | 2 nM |
| Cc1ccc(-c2cc3sc(C(C(=O)NCC(=O)NC4CC4)S(C)(=O)=O)nc3cc2F)cn1 (stereo not shown) [Example 191, N-[(cyclopropyl-carbamoyl)methyl]-2-[5-fluoro-6-(6-methylpyridin-3-yl)-1,3-benzothiazol-2-yl]-2-methanesulfonyl-acetamide] | 9 nM |
| O=C(CNC(=O)C(c1nc2ccc(-c3ccccc3)cc2s1)S(=O)(=O)c1ccc(F)cc1)NC1CC1 (stereo not shown) [Example 449, N-[(cyclopropyl-carbamoyl)methyl]-2-(4-fluorobenzene-sulfonyl)-2-(6-phenyl-1,3-benzothiazol-2-yl)acetamide] | 16 nM |
| N#Cc1cccc(CS(=O)(=O)C(C(=O)NCC(=O)NC2CC2)c2nc3ccc(-c4ccc(F)nc4)cc3s2)c1 (stereo not shown) [Example 20, 2-[(3-cyanophenyl)methanesulfonyl]-N-[(cyclopropyl-carbamoyl)methyl]-2-[6-(6-fluoropyridin-3-yl)-1,3-benzothiazol-2-yl]acetamide] | 46 nM |
| COCCS(=O)(=O)C(C(=O)NCC(=O)NC1CC1)c1nc2ccc(-c3ccc(C(=O)N4CC(C)(O)C4)cc3)cc2s1 (stereo not shown) [Example 405, N-[(cyclopropyl-carbamoyl)methyl]-2-{6-[4-(3-hydroxy-3-methylazetidine-1-carbonyl)phenyl]-1,3-benzothiazol-2-yl}-2-(2-methoxyethane-sulfonyl)acetamide] | 12 nM |
| O=C(CNC(=O)C(c1nc2cc(F)c(-c3cccc(-n4cccn4)c3)cc2s1)S(=O)(=O)CCC(F)(F)F)NC1CC1 (stereo not shown) [Example 137, N-[(cyclopropyl-carbamoyl)methyl]-2-{5-fluoro-6-[3-(1H-pyrazol-1-yl)phenyl]-1,3-benzothiazol-2-yl}-2-(3,3,3-trifluoropropane-sulfonyl) acetamide] | 1 nM |
| COCCS(=O)(=O)C(C(=O)NCC(=O)NC1CC1)c1nc2cc(-c3cncc(Cl)c3)ccc2s1 (stereo not shown) [Example 62] | 5 nM |
| CS(=O)(=O)C(C(=O)NCC(=O)NC1CC1)c1nc2c(Cl)cc(-c3ccc(F)nc3)cc2s1 (stereo not shown) [Example 121, 2-[4-chloro-6-(6-fluoropyridin-3-yl)-1,3-benzothiazol-2-yl]-N-[(cyclopropyl-carbamoyl)methyl]-2-methanesulfonyl-acetamide] | 14 nM |
| COCCS(=O)(=O)C(C(=O)NCC(=O)NC1CC1)c1nc2cc(F)c(-c3ccc(NC(N)=O)cc3)cc2s1 (stereo not shown) [Example 4, 2-{6-[4-(carbamoyl-amino)phenyl]-5-fluoro-1,3-benzothiazol-2-yl}-N-[(cyclopropyl-carbamoyl)methyl]-2-(2-methoxy-ethanesulfonyl) acetamide] | 9 nM |
| O=C(CNC(=O)C(c1nc2ccc(-c3ccc(F)nc3)cc2s1)S(=O)(=O)c1cccnc1)NC1CC1 (stereo not shown) [Example 467, N-[(cyclopropyl-carbamoyl)methyl]-2-[6-(6-fluoropyridin-3-yl)-1,3-benzothiazol-2-yl]-2-(pyridine-3-sulfonyl) acetamide] | 193 nM |
| O=C(CNC(=O)C(c1nc2ccc(-c3ccc(F)nc3)cc2s1)S(=O)(=O)Cc1ccc(OC(F)(F)F)cc1)NC1CC1 (stereo not shown) [Example 513, N-[(cyclopropyl-carbamoyl)methyl]-2-[6-(6-fluoropyridin-3-yl)-1,3-benzothiazol-2-yl]-2-{[4-(trifluoromethoxy)phenyl]methanesulfonyl} acetamide] | 20 nM |
| O=C(CNC(=O)C(c1nc2cc(F)c(-c3cccc(NC(=O)OCc4ccccc4)c3)cc2s1)S(=O)(=O)C1CC1)NC1CC1 (stereo not shown) [Example 555, benzyl N-(3-{2-[(cyclopropane-sulfonyl) ({[(cyclopropyl-carbamoyl)methyl]carbamoyl})methyl]-5-fluoro-1,3-benzothiazol-6-yl}phenyl) carbamate] | 1 nM |
| CC(C)S(=O)(=O)C(C(=O)NCC(=O)NC1CC1)c1nc2cc(F)c(-c3cnc(C4CC4)nc3)cc2s1 (stereo not shown) [Example 243, N-[(cyclopropyl-carbamoyl)methyl]-2-[6-(2-cyclopropyl-pyrimidin-5-yl)-5-fluoro-1,3-benzothiazol-2-yl]-2-(propane-2-sulfonyl) acetamide] | 33 nM |
| O=C(CNC(=O)C(c1nc2ccc(-c3cncnc3)cc2s1)S(=O)(=O)Cc1ccc(F)cc1)NC1CC1 (stereo not shown) [Example 517, N-[(cyclopropyl-carbamoyl)methyl]-2-[(4-fluorophenyl)methanesulfonyl]-2-[6-(pyrimidin-5-yl)-1,3-benzothiazol-2-yl]acetamide] | 117 nM |
| CC(C)S(=O)(=O)C(C(=O)NCC(=O)NC1CC1)c1nc2c(F)cc(-c3ccc(N4CCCC4=O)cc3)cc2s1 (stereo not shown) [Example 283, N-[(cyclopropyl-carbamoyl)methyl]-2-{4-fluoro-6-[4-(2-oxopyrrolidin-1-yl)phenyl]-1,3-benzothiazol-2-yl}-2-(propane-2-sulfonyl)acetamide] | 10 nM |
| Cc1cc2nc(C(C(=O)NCC(=O)NC3CC3)S(=O)(=O)C(C)C)sc2cc1-c1ccc(-c2ccccn2)cc1 (stereo not shown) [Example 261, N-[(cyclopropyl-carbamoyl)methyl]-2-{5-methyl-6-[4-(pyridin-2-yl)phenyl]-1,3-benzothiazol-2-yl}-2-(propane-2-sulfonyl) acetamide] | 4 nM |
| Cc1cnn(-c2cccc(-c3ccc4nc(C(C(=O)NCC(=O)NC5CC5)S(C)(=O)=O)sc4c3)n2)c1 (stereo not shown) [Example 413, N-[(cyclopropyl-carbamoyl)methyl]-2-methanesulfonyl-2-{6-[6-(4-methyl-1H-pyrazol-1-yl)pyridin-2-yl]-1,3-benzothiazol-2-yl}acetamide] | 7 nM |
| CC(C)OCCNC(=O)CNC(=O)C(c1nc2ccc(-c3ccc(F)nc3)cc2s1)S(=O)(=O)c1ccc(F)cc1 (stereo not shown) [Example 455, 2-(4-fluorobenzene-sulfonyl)-2-[6-(6-fluoropyridin-3-yl)-1,3-benzothiazol-2-yl]-N-({[2-(propan-2-yloxy)ethyl]carbamoyl}methyl)acetamide] | 100 nM |
| Cc1cc(-c2cc3sc(C(C(=O)NCC(=O)NC4CC4)S(=O)(=O)C(C)C)nc3cc2C)ccn1 (stereo not shown) [Example 255, N-[(cyclopropyl-carbamoyl)methyl]-2-[5-methyl-6-(2-methylpyridin-4-yl)-1,3-benzothiazol-2-yl]-2-(propane-2-sulfonyl) acetamide] | 5 nM |
